Measured values: patent publication US20100222396A1 (Novartis AG, priority 2009, published 2010)

Legend:
[1] = target: T1, human orexin 2 receptor (hOx2R) (Homo sapiens, UniProt O43614); assay: Calcium accumulation in cells (FLIPR), antagonism of orexin A, hOx2R; type: cell-based; details: for Kd: cells expressing human orexin 2 receptor, IC50 vs orexin A converted by Cheng and Prusoff correction; for inhibition at 10 µM: measured at a concentration of 10 μM of compound (cells marked ^a)
T1 construct: expressed in transfected cells
T1 sequence (O43614 1-444): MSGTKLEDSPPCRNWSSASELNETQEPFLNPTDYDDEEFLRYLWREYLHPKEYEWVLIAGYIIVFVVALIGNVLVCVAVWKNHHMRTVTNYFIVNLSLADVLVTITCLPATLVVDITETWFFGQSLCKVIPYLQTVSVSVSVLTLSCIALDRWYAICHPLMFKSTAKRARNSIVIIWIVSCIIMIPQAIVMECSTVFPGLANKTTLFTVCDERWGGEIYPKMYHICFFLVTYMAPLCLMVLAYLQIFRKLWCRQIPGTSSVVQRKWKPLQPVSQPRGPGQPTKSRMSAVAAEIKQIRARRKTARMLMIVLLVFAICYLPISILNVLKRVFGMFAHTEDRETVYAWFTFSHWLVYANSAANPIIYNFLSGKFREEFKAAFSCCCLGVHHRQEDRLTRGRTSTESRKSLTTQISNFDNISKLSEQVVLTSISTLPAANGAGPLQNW
Procedure: (§1) Cells expressing human orexin 1 or human orexin 2 receptors, were seeded at 8,000 cells/well in 384 well black-walled clear bottom, poly-D-lysine coated plates. After 24 h, the medium was removed and cells were washed once with phosphate buffered saline and serum-deprived overnight in assay buffer (130 mM NaCl, 5.4 mM KCl, 1.8 mM CaCl2, 0.8 mM MgSO4, 0.9 mM NaH2PO4, 25 mM glucose, 20 mM HEPES, pH 7.4) containing bovine serum albumin (1% w/v).
(§2) On the day of the experiment, the cells seeded in black plates were treated with assay buffer containing the Ca^2+ sensitive fluorescent dye Fluo-4-AM (2 μM), and probenecid (0.1 mM). After 1 h plates were washed twice with, and resuspended in, assay buffer containing probenecid (0.1 mM) using a multi plate washer. The plates were placed into a FLIPR II (Fluorometric Imaging Plate Reader, Molecular Devices, Sunnyvale, Calif., USA) and baseline fluorescence (fluorescence light units, FLU) was measured (5 measurements, 2 S each; laser excitation 488 nm at 0.6-1 W, CCD camera exposure 0.4 s) before addition of buffer alone (basal) or containing test compounds (either compound of formula I alone, agonist alone or agonist in the presence of various concentrations of compounds of formula I). Fluorescence measurements were then continued every 1 S for 120 S followed by every 4 S for 240 S.
(§3) The measurements were typically made in two sequences:
(§4) Compounds of formula I were tested usually in a concentration range from 10^−9 M to 10^−5 M.
(§5) In the second round, performed one hour later (to allow for equilibration), Orexin A was tested either in the absence (calibration curves, Orexin A agonist controls) or in the presence of compounds of formula I to determine antagonism.

[2] = target: T2, human orexin 1 receptor (hOx1R) (Homo sapiens, UniProt O43613); assay: Calcium accumulation in cells (FLIPR), antagonism of orexin A, hOx1R; type: cell-based; details: for Kd: cells expressing human orexin 1 receptor, IC50 vs orexin A converted by Cheng and Prusoff correction; for inhibition at 10 µM: measured at a concentration of 10 μM of compound (cells marked ^a)
T2 construct: expressed in transfected cells
T2 sequence (O43613 1-425): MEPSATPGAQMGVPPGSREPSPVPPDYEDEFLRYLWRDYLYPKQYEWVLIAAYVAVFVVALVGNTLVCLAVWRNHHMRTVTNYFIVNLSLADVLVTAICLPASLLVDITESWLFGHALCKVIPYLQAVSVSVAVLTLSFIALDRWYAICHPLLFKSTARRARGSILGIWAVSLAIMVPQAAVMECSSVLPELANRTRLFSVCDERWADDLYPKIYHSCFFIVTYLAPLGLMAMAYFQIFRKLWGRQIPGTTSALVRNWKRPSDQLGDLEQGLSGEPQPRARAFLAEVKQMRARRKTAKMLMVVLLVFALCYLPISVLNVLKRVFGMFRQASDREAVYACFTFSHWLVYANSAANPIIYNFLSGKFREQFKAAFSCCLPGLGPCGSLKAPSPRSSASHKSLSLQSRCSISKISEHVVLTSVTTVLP
Procedure: as §1, §2, §3, §4, §5

[3] = target: T2, human orexin 1 receptor (hOx1R); assay: Radioligand binding assay ([125I]orexin A competition), hOx1R; details: CHO or HEK cell membranes, 1 h room temperature
Procedure: (§6) For crude cell membrane preparations, cells (CHO, Chinese hamster ovary or HEK, human embryonic kidney) expressing human orexin 1 or human orexin 2 receptors, were washed with HEPES (10 mM, pH 7.5), scraped off the culture plates with the same buffer, and centrifuged at 4° C. for 5 min at 2500×g. The cell pellet was either stored at −80° C. or used directly. Before the experiments, cell membranes were re-suspended in binding assay buffer (10 mM HEPES, 0.5% (w/v) bovine serum albumin, pH 7.5) by homogenisation with a Polytron homogeniser at 50 Hz for 20 s. Cell membranes were also used as made available by commercial providers.
(§7) In initial saturation experiments (to calculate Bmax), cell homogenates (150 μl) were incubated with 25-300 pM of the radioligand ([^125I]orexin A, 50 μl), 8 concentrations in triplicates in the presence or absence Orexin A (1 μM, 50 μl) to define non specific binding. Bound radioactivity was measured, and data were analysed with the program XLFIT or Graphpad Prism. Protein concentration was determined according to the Bradford/BioRad Protein Assay Kit.
(§8) In competition experiments, cell homogenates (150 μl) were incubated in assay buffer (10 mM HEPES, pH 7.5, 0.5% (w/v) bovine serum albumin, 5 mM MgCl2, […], and tween 0.05%) for 1 h at room temperature with about […] of the radioligand ([^125I]orexin A, 2100 Ci/mmole, 50 μl), and with various concentrations of compounds of the invention (50 μl) in triplicates; non-specific binding was determined in the presence of Orexin A (1 μM). Reactions were terminated by vacuum filtration, 3 washes of ice cold wash buffer (Tris-HCl pH 7.4/10 mM, with NaCl 154 mM). Competition data is expressed in Table 1 as Kd [μM].

[4] = target: T1, human orexin 2 receptor (hOx2R); assay: Radioligand binding assay ([125I]orexin A competition), hOx2R; details: CHO or HEK cell membranes, 1 h room temperature
Procedure: as §6, §7, §8

Row | SMILES | Kd [1] | Kd [2] | Kd [3] | Kd [4] | inhibition at 10 µM [2] | inhibition at 10 µM [1]
1 | CN(C(=O)c1ccc2ccccc2c1)[C@H](CCNC(=O)c1ccccn1)Cc1ccccc1 [Example 21, Pyridine-2-carboxylic acid {(S)-3-[methyl-(naphthalene-2-carbonyl)-amino]-4-phenyl-butyl}-amide] | 174 nM | 70 nM | 62 nM | 203 nM |  | 
2 | CN(C(=O)c1cccc2[nH]ccc12)[C@H](CCNC(=O)c1ccccn1)Cc1ccccc1 [Example 11, 1H-Indole-4-carboxylic acid {(S)-1-benzyl-3-[(pyridine-2-carbonyl)-amino]-propyl}-methyl-amide] | 16 nM | 22 nM | 21 nM | 52 nM |  | 
3 | CN(C(=O)c1ccccc1)[C@H](CCNC(=O)c1ccccn1)Cc1ccccc1 [Example 37, Pyridine-2-carboxylic acid [(S)-3-(benzoyl-methyl-amino)-4-phenyl-butyl]-amide] | 440 nM | 836 nM | 358 nM | 479 nM |  | 
4 | Cc1cc(F)cc(C(=O)N(C)[C@H](CCNC(=O)c2cccn2C)Cc2ccccc2)c1 [Example 124, 1-Methyl-1H-pyrrole-2-carboxylic acid {(S)-3-[(3-fluoro-5-methyl-benzoyl)-methyl-amino]-4-phenyl-butyl}-amide] | 13 nM | 710 nM | 599 nM | 39 nM |  | 
5 | CN(C(=O)c1cccc2c1OCO2)[C@@H](CCNC(=O)c1ccccn1)Cc1ccccc1 [Example 61, Pyridine-2-carboxylic acid {(R)-3-[(benzo[1,3]-dioxole-4-carbonyl)-methyl-amino]-4-phenyl-butyl}-amide] |  | 3830 nM | 4560 nM |  |  | 
6 | [2H]C([2H])(c1ccccc1)C(CCNC(=O)c1ccccn1)N(C)C(=O)c1ccc2c(c1)OCO2 (stereo not drawn) [Example 110, Pyridine-2-carboxylic acid {3-[(benzo[1,3]dioxole-5-carbonyl)-methyl-amino]-4,4-dideutero-4-phenyl-butyl}-amide] |  | 1730 nM | 1380 nM |  |  | 
7 | CN(C(=O)c1cccc2c1OCO2)[C@H](CCNC(=O)c1ccccn1)Cc1ccccc1 [Example 30, Pyridine-2-carboxylic acid {(S)-3-[(benzo[1,3]dioxole-4-carbonyl)-methyl-amino]-4-phenyl-butyl}-amide] |  | 2190 nM | 1100 nM |  |  | 
8 | COc1cc(Cl)cc(C(=O)N(C)[C@H](CCNC(=O)c2cccn2C)Cc2ccccc2)c1 [Example 106, 1-Methyl-1H-pyrrole-2-carboxylic acid {(S)-3-[(3-chloro-5-methoxy-benzoyl)-methyl-amino]-4-phenyl-butyl}-amide] |  | 84 nM | 50 nM | 3 nM |  | 
9 | CN(C(=O)c1ccc2c(c1)OCO2)[C@@H](Cc1ccccc1)[C@H](O)CNC(=O)c1ccc2c(c1)OCO2 [Example 72, Benzo[1,3]dioxole-5-carboxylic acid {(2R,3S)-3-[(benzo[1,3]dioxole-5-carbonyl)-methyl-amino]-2-hydroxy-4-phenyl-butyl}-amide] | 761 nM |  |  |  | 27% | 
10 | CN(C(=O)c1ccccc1)[C@H](CCNC(=O)c1ccc2c(c1)CCO2)Cc1ccccc1 [Example 94, 2,3-Dihydro-benzofuran-5-carboxylic acid [(S)-3-(benzoyl-methyl-amino)-4-phenyl-butyl]-amide] | 565 nM |  |  |  | 12% | 
11 | CN(C(=O)c1ccccc1)[C@H](CCNC(=O)c1ccccn1)[C@@H](O)c1ccccc1 [Example 115, Pyridine-2-carboxylic acid [(3R,4S)-3-(benzoyl-methyl-amino)-4-hydroxy-4-phenyl-butyl]-amide] |  |  |  |  | 13% | 33%
12 | CN(C(=O)c1ccccc1)[C@H](CCNC(=O)c1nccn1C)Cc1ccccc1 [Example 92, 1-Methyl-1H-imidazole-2-carboxylic acid [(S)-3-(benzoyl-methyl-amino)-4-phenyl-butyl]-amide] | 921 nM |  |  |  | 2% | 
13 | CN(C(=O)c1ccc2c(c1)OCO2)[C@@H](CCNC(=O)c1ccccn1)Cc1ccccc1 [Example 47, Pyridine-2-carboxylic acid {(R)-3-[(benzo[1,3]dioxole-5-carbonyl)-methyl-amino]-4-phenyl-butyl}-amide] |  | 6290 nM | 12300 nM |  |  | 
14 | Cc1cccc(C)c1C(=O)N(C)[C@H](CCNC(=O)c1ccccn1)Cc1ccccc1 [Example 98, Pyridine-2-carboxylic acid {(8)-3-[(2,6-dimethyl-benzoyl)-methyl-amino]-4-phenyl-butyl}-amide] |  |  |  |  | 28% | 24%
15 | CN(C(=O)c1ccc2c(c1)OCO2)[C@@H](Cc1ccccc1)C(C)(C)CNC(=O)c1ccccn1 [Example 113, Pyridine-2-carboxylic acid {(S)-3-[(benzo[1,3]dioxole-5-carbonyl)-methyl-amino]-2,2-dimethyl-4-phenyl-butyl}-amide] | 497 nM |  |  | 531 nM | 24% | 
16 | CN(C(=O)c1ccccc1)[C@H](CCNC(=O)c1ccccn1)C(C)(C)c1ccccc1 [Example 114, Pyridine-2-carboxylic acid [(R)-3-(benzoyl-methyl-amino)-4-methyl-4-phenyl-pentyl]-amide] |  |  |  |  | 34% | 18%
17 | CN(C(=O)c1ccc2c(c1)OCO2)[C@H](CCNC(=O)c1ccccn1)Cc1ccccc1 [Example 1, Pyridine-2-carboxylic acid {(S)-3-[(benzo[1,3]dioxole-5-carbonyl)-methyl-amino]-4-phenyl-butyl}-amide] |  | 228 nM | 179 nM |  |  | 
18 | CN(C(=O)c1ccccc1)[C@H](CCNC(=O)c1ccccc1)Cc1ccccc1 [Example 15, N—[(S)-3-(Benzoyl-methyl-amino)-4-phenyl-butyl]-benzamide] | 272 nM |  |  |  | 17% | 
19 | CN(C(=O)c1ccccc1)[C@](C)(CCNC(=O)c1ccccn1)Cc1ccccc1 [Example 111, Pyridine-2-carboxylic acid [(S)-3-(benzoyl-methyl-amino)-3-methyl-4-phenyl-butyl]-amide] | 562 nM |  |  |  | 25% | 
